Active and inactive are the calls of the source. The calls are words filed in the database; no cut-off is given here.
Experiments:
MDA-MB-231 = experiment: Upregulation of FAK level in human MDA-MB-231 cells harbouring mCherry red fluorescent protein at 0.1 to 1 uM incubated for 1 hr by immunoblotting analysis; format: functional, cell-based; details: dose 0.1-1 µM
[1] = biological target: Focal adhesion kinase 1 (Mus musculus) (UniProt P34152); experiment: Inhibition of FAK phosphorylation at Tyr397 residue in mouse 4T1 cells harbouring mCherry red fluorescent protein at 0.1 to 1 uM incubated for 60 mins followed by compound washout measured after 60 mins by immunoblotting analysis; format: cell-based; details: dose 0.1-1 µM
Sequence of Focal adhesion kinase 1 (Mus musculus) (P34152 whole entry): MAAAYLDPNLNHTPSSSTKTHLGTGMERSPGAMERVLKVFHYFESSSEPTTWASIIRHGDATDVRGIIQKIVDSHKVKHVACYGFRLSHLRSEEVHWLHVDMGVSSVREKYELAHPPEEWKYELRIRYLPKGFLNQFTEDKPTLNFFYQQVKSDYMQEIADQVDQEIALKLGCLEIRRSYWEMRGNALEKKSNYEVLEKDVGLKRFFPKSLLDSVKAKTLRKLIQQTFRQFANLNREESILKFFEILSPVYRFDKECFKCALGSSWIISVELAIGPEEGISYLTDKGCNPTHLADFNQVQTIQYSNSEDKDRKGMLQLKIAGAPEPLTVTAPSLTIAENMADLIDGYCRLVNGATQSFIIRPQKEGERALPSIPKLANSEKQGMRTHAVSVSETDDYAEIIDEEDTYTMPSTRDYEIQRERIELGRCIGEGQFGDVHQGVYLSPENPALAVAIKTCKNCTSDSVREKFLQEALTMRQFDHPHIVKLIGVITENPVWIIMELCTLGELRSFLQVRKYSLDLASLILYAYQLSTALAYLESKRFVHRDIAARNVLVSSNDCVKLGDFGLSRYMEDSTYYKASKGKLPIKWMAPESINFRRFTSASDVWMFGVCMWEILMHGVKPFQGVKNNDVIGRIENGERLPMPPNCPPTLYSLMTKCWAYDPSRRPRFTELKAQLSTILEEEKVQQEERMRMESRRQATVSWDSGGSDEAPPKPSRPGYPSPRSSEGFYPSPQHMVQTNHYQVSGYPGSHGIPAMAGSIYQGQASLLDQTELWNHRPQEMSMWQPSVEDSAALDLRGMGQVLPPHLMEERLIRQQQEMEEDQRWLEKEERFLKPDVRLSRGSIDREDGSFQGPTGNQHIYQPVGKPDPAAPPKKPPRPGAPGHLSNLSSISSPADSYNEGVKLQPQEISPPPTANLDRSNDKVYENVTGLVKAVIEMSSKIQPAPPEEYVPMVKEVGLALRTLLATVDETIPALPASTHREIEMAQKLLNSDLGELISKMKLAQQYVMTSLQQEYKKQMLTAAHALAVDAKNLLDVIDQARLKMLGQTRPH

4T1 [2] = experiment: Inhibition of cell migration in mouse 4T1 cells incubated for 4 hrs by millicell-motility assay; format: functional, cell-based; details: dose 0.1-1 µM
[3] = biological target: Focal adhesion kinase 1 (Mus musculus) (UniProt P34152); experiment: Inhibition of FAK phosphorylation at Y397 residue in mouse 4T1 suspended cells at 0.1 uM incubated for 24 hrs by immunoblotting analysis; format: cell-based
4T1 [4] = experiment: Inhibition of colony formation in mouse 4T1 cells assessed as reduction in cell number at 0.4 to 1 uM measured after 4 days by phase contrast microscopy analysis; format: functional, cell-based; details: dose 0.4-1 µM, time 4.0 day
4T1 [5] = experiment: Induction of apoptosis in mouse 4T1 cells assessed as increase in cell apoptosis at 0.1 to 1 uM measured after 2 days by visual analysis; format: functional; details: dose 0.1-1 µM, time 2 day
ID8 [6] = experiment: Antitumor activity against mouse ID8 suspended cells assessed as reduction in cell viability at 0.1 to 1 uM measured after 15 days by trypan blue staining based analysis; format: functional; details: dose 0.1-1 µM, time 15.0 day
ID8 [7] = experiment: Antitumor activity against mouse ID8 cells implanted in C57BL6 mouse assessed as reduction in number of ascites-associated cells at 0.5 mg/ml administered as solution in 5% sucrose measured after 30 days; format: functional, cell-based; details: time 30.0 day
[8] = biological target: Proto-oncogene tyrosine-protein kinase receptor Ret (Homo sapiens) (UniProt P07949); experiment: Inhibition of Ret (unknown origin) at 1 uM relative to control; values are per cent of control
[9] = biological target: Epidermal growth factor receptor (Homo sapiens) (UniProt P00533); experiment: Inhibition of EGFR (unknown origin) at 1 uM relative to control; values are per cent of control
Sequence of Epidermal growth factor receptor (Homo sapiens) (P00533 whole entry): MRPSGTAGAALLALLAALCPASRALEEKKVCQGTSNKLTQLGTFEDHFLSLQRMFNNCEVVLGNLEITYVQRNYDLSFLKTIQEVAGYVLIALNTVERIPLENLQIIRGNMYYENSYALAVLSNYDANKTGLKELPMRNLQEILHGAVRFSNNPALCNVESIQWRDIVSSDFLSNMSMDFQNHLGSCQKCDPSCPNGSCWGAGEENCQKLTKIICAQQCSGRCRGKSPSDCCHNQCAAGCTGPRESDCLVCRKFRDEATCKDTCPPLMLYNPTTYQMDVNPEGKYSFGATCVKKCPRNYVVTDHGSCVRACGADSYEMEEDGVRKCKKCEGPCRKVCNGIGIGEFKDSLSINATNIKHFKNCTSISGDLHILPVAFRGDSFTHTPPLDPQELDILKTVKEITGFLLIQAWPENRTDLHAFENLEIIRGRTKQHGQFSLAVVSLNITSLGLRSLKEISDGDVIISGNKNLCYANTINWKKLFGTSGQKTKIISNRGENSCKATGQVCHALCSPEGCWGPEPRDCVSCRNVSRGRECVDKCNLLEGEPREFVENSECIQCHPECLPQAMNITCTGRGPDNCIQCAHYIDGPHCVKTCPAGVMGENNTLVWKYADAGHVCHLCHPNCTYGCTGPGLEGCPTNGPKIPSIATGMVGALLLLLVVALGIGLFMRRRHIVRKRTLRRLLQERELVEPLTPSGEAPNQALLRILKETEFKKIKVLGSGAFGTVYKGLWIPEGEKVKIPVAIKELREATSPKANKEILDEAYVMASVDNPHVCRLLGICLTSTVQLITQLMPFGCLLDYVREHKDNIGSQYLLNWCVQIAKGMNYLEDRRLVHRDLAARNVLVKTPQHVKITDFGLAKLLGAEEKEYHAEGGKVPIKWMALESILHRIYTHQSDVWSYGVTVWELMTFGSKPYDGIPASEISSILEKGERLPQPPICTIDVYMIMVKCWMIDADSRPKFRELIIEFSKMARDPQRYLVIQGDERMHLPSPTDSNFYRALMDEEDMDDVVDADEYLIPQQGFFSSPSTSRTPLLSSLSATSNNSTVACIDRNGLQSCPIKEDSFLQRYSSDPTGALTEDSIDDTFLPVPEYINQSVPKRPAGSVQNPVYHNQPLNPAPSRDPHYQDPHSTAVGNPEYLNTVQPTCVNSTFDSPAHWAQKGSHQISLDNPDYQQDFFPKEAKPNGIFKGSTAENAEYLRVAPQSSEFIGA

[10] = biological target: High affinity nerve growth factor receptor (Homo sapiens) (UniProt P04629); experiment: Inhibition of TrkA (unknown origin) at 1 uM relative to control; values are per cent of control
Sequence of High affinity nerve growth factor receptor (Homo sapiens) (P04629 33-796 limits assumed): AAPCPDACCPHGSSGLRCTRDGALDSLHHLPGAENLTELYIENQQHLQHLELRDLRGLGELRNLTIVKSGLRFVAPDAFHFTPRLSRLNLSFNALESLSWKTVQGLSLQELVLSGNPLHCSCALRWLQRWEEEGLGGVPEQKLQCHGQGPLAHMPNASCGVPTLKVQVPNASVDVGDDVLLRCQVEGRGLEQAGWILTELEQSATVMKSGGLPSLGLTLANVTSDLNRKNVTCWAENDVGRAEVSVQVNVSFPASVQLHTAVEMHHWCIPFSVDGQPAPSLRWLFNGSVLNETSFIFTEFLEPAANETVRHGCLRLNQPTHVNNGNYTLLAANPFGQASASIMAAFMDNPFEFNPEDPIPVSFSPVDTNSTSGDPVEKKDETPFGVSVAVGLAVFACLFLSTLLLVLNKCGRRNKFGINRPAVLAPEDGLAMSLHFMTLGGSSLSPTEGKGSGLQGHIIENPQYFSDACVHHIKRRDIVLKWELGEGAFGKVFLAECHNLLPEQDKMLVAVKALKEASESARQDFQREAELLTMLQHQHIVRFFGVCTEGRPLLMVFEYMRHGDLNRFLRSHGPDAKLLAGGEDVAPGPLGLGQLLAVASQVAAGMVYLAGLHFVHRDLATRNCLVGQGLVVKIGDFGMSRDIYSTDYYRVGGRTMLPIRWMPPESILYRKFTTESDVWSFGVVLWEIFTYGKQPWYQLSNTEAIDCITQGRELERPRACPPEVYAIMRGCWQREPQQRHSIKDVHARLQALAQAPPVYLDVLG

[11] = biological target: Casein kinase I isoform gamma-1 (Homo sapiens) (UniProt Q9HCP0); experiment: Inhibition of CK1g1 (unknown origin) at 1 uM relative to control; values are per cent of control
Sequence of Casein kinase I isoform gamma-1 (Homo sapiens) (Q9HCP0 whole entry, looked up, canonical isoform): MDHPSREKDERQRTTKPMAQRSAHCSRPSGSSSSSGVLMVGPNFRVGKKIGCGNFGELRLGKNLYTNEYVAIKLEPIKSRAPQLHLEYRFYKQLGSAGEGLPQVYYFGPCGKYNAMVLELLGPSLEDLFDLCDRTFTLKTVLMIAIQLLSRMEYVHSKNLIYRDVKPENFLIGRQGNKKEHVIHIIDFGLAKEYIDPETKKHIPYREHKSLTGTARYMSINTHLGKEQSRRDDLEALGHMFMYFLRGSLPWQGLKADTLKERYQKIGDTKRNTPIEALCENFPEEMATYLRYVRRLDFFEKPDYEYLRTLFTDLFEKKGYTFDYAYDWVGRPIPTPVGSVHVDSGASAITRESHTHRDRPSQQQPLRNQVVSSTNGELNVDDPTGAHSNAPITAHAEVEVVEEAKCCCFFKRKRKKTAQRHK

[12] = biological target: Rho-associated protein kinase 1 (Homo sapiens) (UniProt Q13464); experiment: Inhibition of ROCK1 (unknown origin) at 1 uM relative to control; values are per cent of control
[13] = biological target: Protein kinase C alpha type (Homo sapiens) (UniProt P17252); experiment: Inhibition of PKCa (unknown origin) at 0.1 uM relative to control; values are per cent of control
[14] = biological target: Insulin-like growth factor 1 receptor (Homo sapiens) (UniProt P08069); experiment: Inhibition of IGF-1R (unknown origin) at 1 uM relative to control; values are per cent of control
[15] = biological target: Platelet-derived growth factor receptor beta (Homo sapiens) (UniProt P09619); experiment: Inhibition of PDGFRb (unknown origin) at 1 uM relative to control; values are per cent of control
[16] = biological target: Mast/stem cell growth factor receptor Kit (Homo sapiens) (UniProt P10721); experiment: Inhibition of c-kit (unknown origin) at 0.1 uM relative to control; values are per cent of control
Sequence of Mast/stem cell growth factor receptor Kit (Homo sapiens) (P10721 whole entry): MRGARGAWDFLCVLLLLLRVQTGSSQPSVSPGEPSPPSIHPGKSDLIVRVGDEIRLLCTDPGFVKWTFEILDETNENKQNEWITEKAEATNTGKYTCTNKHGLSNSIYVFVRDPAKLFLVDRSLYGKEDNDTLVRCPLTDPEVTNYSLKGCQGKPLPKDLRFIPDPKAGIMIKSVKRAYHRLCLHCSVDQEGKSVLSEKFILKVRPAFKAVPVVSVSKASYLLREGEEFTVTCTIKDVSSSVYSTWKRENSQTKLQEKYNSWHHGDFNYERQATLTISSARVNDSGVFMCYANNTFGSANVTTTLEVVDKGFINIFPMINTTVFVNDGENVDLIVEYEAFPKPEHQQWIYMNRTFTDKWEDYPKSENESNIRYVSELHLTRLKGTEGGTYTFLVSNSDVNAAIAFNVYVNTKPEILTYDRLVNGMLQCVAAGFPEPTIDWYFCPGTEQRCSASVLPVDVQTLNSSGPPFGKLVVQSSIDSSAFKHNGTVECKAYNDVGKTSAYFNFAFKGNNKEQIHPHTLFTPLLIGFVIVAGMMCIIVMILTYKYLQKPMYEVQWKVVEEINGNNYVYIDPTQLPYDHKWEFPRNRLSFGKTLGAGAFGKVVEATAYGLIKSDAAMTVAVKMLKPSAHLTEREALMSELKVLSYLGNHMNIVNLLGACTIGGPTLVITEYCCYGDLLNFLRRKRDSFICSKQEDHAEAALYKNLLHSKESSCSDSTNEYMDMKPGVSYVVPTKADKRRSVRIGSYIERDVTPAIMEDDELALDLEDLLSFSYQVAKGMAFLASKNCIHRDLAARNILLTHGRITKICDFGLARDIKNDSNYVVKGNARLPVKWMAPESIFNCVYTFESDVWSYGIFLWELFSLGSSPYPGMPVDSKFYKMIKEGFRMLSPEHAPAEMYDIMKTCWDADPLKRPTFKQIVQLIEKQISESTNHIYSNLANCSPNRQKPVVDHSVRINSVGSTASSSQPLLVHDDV

Homo sapiens = species: Homo sapiens; experiment: Inhibition of CDK2/cyclin A (unknown origin) at 0.1 uM relative to control; values are per cent of control

CNC(=O)c1ccccc1Nc1cc(Nc2ccc(N3CCOCC3)cc2OC)ncc1C(F)(F)F [VS-4718]
Activity (MDA-MB-231): Active | inhibition [1]: inactive | inhibition (4T1 [2]): Dose-Dependent Effect | inhibition [3]: Active | inhibition (4T1 [4]): Active | Activity (4T1 [5]): >50% | Activity (ID8 [6]): Active | Activity (ID8 [7]): Active | residual activity [8]: 67% | residual activity [9]: 106% | residual activity [10]: 27% | residual activity [11]: 107% | residual activity [12]: 90% | residual activity [13]: 101% | residual activity [14]: 110% | residual activity [15]: 105% | residual activity [16]: 119% | residual activity (Homo sapiens): 91%
